Assay results: ChEMBL document CHEMBL4342454, “Unraveling Structures Containing Highly Conjugated Pyrrolo[4,3,2-de]quinoline Cores That Are Deficient in Diagnostic Proton NMR Signals” (J Nat Prod, 2020)
Activity calls are given as the source filed them.

Tests used:
[1] = test system: Yersinia pseudotuberculosis; assay: Inhibition of Yersinia pseudotuberculosis Type 3 secretion system protein by SDS-PAGE analysis
Hep293TT = assay: Cytotoxicity against human Hep293TT cells after 48 hrs by sulforhodamine B assay; type: functional, cell-based
Homo sapiens [2] = species on record: Homo sapiens; assay: Cytotoxicity against human D283 cells after 48 hrs by sulforhodamine B assay; type: functional, cell-based
Homo sapiens [3] = species on record: Homo sapiens; assay: Cytotoxicity against human SJCRH30 cells after 48 hrs by sulforhodamine B assay; type: functional, cell-based
A673 = assay: Cytotoxicity against human A673 cells after 48 hrs by sulforhodamine B assay; type: functional, cell-based

CN1CCc2c[nH]c3c2c1cc1[o+]c2cc4c5c(c[nH]c5c2nc13)CCN4C
inactive: inhibition [1] | Activity (Hep293TT) | Activity (Homo sapiens [2]) | Activity (Homo sapiens [3]) | Activity (A673)

Cc1nc2c(cc1-c1ccc(O)cc1)cc1c3c(c[nH]c32)CCN1C
inactive: inhibition [1] | Activity (Hep293TT) | Activity (Homo sapiens [2]) | Activity (Homo sapiens [3]) | Activity (A673)
